Source: ChEMBL document CHEMBL3046004, “Esterase-mediated resistance to pyrethroids in field populations of Helicoverpa armigera (Lepidoptera: Noctuidae) from Central Africa” (2009)

Columns and labels:
Format in all cases: functional
Helicoverpa armigera [1] = assay: Synergism factor, ratio of LD50 for fourth-instar larval stage of pyrethroid-resistance Helicoverpa armigera laboratory strain GS-RR08 to LD50 for fourth-instar larval stage of pyrethroid-resistance Helicoverpa armigera laboratory strain GS-RR08 in presence of 3.2 microg/larva propenofos
Helicoverpa armigera [2] = assay: Synergism factor, ratio of LD50 for fourth-instar larval stage of Helicoverpa armigera field strain Gaschiga isolated form hyptis plant to LD50 for fourth-instar larval stage of Helicoverpa armigera field strain Gaschiga isolated from hyptis plant in presence of 10 microg/larva cytochrome P450 monooxygenase inhibitor, PBO
Helicoverpa armigera [3] = assay: Synergism factor, ratio of LD50 for fourth-instar larval stage of Helicoverpa armigera field strain Ngong to LD50 for fourth-instar larval stage of Helicoverpa armigera field strain Ngong in presence of 10 microg/larva cytochrome P450 monooxygenase inhibitor, PBO
Helicoverpa armigera [4] = assay: Synergism factor, ratio of LD50 for Helicoverpa armigera field strain Guider to LD50 for fourth-instar larval stage of Helicoverpa armigera field strain Guider in presence of 10 microg/larva cytochrome P450 monooxygenase inhibitor, PBO
Helicoverpa armigera [5] = assay: Synergism factor, ratio of LD50 for fourth-instar larval stage of Helicoverpa armigera Foumbot to LD50 for fourth-instar larval stage of Helicoverpa armigera Foumbot in presence of 10 microg/larva cytochrome P450 monooxygenase inhibitor, PBO
Helicoverpa armigera [6] = assay: (§1) Synergism factor, ratio of LD50 for fourth-instar larval stage of pyrethroid-resistance Helicoverpa armigera field strain Pitoa isolated from tomato plant to LD50 for fourth-instar larval stage of Helicoverpa armigera field strain Pitoa isolated from tomato plant in presence of 10 microg/larva cytochrome P450 monooxygenase inhibitor, PBO
Helicoverpa armigera [7] = assay: as §1, with “of” for “of pyrethroid-resistance”, “maize” for “tomato”
Helicoverpa armigera [8] = assay: Synergism factor, ratio of LD50 for fourth-instar larval stage of Helicoverpa armigera field strain Home to LD50 for fourth-instar larval stage of Helicoverpa armigera field strain Home in presence of 10 microg/larva cytochrome P450 monooxygenase inhibitor, PBO
Helicoverpa armigera [9] = assay: Synergism factor, ratio of LD50 for fourth-instar larval stage of pyrethroid-resistance Helicoverpa armigera laboratory strain GS-RR06 to LD50 for fourth-instar larval stage of pyrethroid-resistance Helicoverpa armigera laboratory strain GS-RR06 in presence of 10 microg/larva cytochrome P450 monooxygenase inhibitor, PBO
Helicoverpa armigera [10] = assay: Insecticidal activity against fourth-instar larval stage of pyrethroid-resistance Helicoverpa armigera laboratory strain GS-RR08 assessed as mortality applied topically onto thorax measured after 48 hr in presence of 3.2 microg/larva […]
Helicoverpa armigera [11] = assay: Insecticidal activity against fourth-instar larval stage of Helicoverpa armigera field strain Gaschiga isolated from hyptis plant assessed as mortality applied topically onto thorax 30 min after 10 microg/larva cytochrome P450 monooxygenase inhibitor, PBO application measured after 48 hr
Helicoverpa armigera [12] = assay: Insecticidal activity against fourth-instar larval stage of Helicoverpa armigera field strain Ngong isolated from cotton plant assessed as mortality applied topically onto thorax 30 min after 10 microg/larva cytochrome P450 monooxygenase inhibitor, PBO application measured after 48 hr
Helicoverpa armigera [13] = assay: Insecticidal activity against fourth-instar larval stage of Helicoverpa armigera field strain Guider isolated from cotton plant assessed as mortality applied topically onto thorax 30 min after 10 microg/larva cytochrome P450 monooxygenase inhibitor, PBO application measured after 48 hr
Helicoverpa armigera [14] = assay: Insecticidal activity against fourth-instar larval stage of Helicoverpa armigera Foumbot isolated from tomato plant assessed as mortality applied topically onto thorax 30 min after 10 microg/larva cytochrome P450 monooxygenase inhibitor, PBO application measured after 48 hr
Helicoverpa armigera [15] = assay: Insecticidal activity against fourth-instar larval stage of Helicoverpa armigera field strain Pitoa isolated from tomato plant assessed as mortality applied topically onto thorax 30 min after 10 microg/larva cytochrome P450 monooxygenase inhibitor, PBO application measured after 48 hr
Helicoverpa armigera [16] = assay: Insecticidal activity against fourth-instar larval stage of Helicoverpa armigera field strain Pitoa isolated from maize plant assessed as mortality applied topically onto thorax 30 min after 10 microg/larva cytochrome P450 monooxygenase inhibitor, PBO application measured after 48 hr
Helicoverpa armigera [17] = assay: Insecticidal activity against fourth-instar larval stage of Helicoverpa armigera field strain Home isolated from cotton plant assessed as mortality applied topically onto thorax 30 min after 10 microg/larva cytochrome P450 monooxygenase inhibitor, PBO application measured after 48 hr
Helicoverpa armigera [18] = assay: Insecticidal activity against fourth-instar larval stage of pyrethroid-resistance Helicoverpa armigera laboratory strain GS-RR06 assessed as mortality applied topically onto thorax 30 min after 10 microg/larva cytochrome P450 monooxygenase inhibitor, PBO application measured after 48 hr
Helicoverpa armigera [19] = assay: Resistance factor, ratio of LD50 for fourth-instar larval stage of Helicoverpa armigera field strain Gaschiga isolated from hyptis plant to LD50 for fourth-instar larval stage of pyrethroid-susceptible Helicoverpa armigera laboratory strain BK-77
Helicoverpa armigera [20] = assay: Resistance factor, ratio of LD50 for fourth-instar larval stage of Helicoverpa armigera field strain Ngong to LD50 for fourth-instar larval stage of pyrethroid-susceptible Helicoverpa armigera laboratory strain BK-77
Helicoverpa armigera [21] = assay: Resistance factor, ratio of LD50 for fourth-instar larval stage of Helicoverpa armigera field strain Djalingo to LD50 for fourth-instar larval stage of pyrethroid-susceptible Helicoverpa armigera laboratory strain BK-77
Helicoverpa armigera [22] = assay: Resistance factor, ratio of LD50 for fourth-instar larval stage of Helicoverpa armigera field strain Guider to LD50 for fourth-instar larval stage of pyrethroid-susceptible Helicoverpa armigera laboratory strain BK-77
Helicoverpa armigera [23] = assay: Resistance factor, ratio of LD50 for fourth-instar larval stage of Helicoverpa armigera field strain Mokong to LD50 for fourth-instar larval stage of pyrethroid-susceptible Helicoverpa armigera laboratory strain BK-77
Helicoverpa armigera [24] = assay: Resistance factor, ratio of LD50 for fourth-instar larval stage of Helicoverpa armigera Foumbot to LD50 for fourth-instar larval stage of pyrethroid-susceptible Helicoverpa armigera laboratory strain BK-77
Helicoverpa armigera [25] = assay: Insecticidal activity against fourth-instar larval stage of Helicoverpa armigera field strain Guider isolated from cotton plant assessed as mortality applied topically onto thorax measured after 48 hr
Helicoverpa armigera [26] = assay: Insecticidal activity against fourth-instar larval stage of Helicoverpa armigera field strain Mokong isolated from cotton plant assessed as mortality applied topically onto thorax measured after 48 hr
Helicoverpa armigera [27] = assay: Insecticidal activity against fourth-instar larval stage of Helicoverpa armigera Foumbot isolated from tomato plant assessed as mortality applied topically onto thorax measured after 48 hr
Helicoverpa armigera [28] = assay: Insecticidal activity against fourth-instar larval stage of Helicoverpa armigera field strain Pitoa isolated from maize plant assessed as mortality applied topically onto thorax measured after 48 hr
Helicoverpa armigera [29] = assay: Insecticidal activity against fourth-instar larval stage of Helicoverpa armigera field strain Sorga isolated from cotton plant assessed as mortality applied topically onto thorax measured after 48 hr
Helicoverpa armigera [30] = assay: Insecticidal activity against fourth-instar larval stage of Helicoverpa armigera field strain Tchollire isolated from cotton plant assessed as mortality applied topically onto thorax measured after 48 hr
Helicoverpa armigera [31] = assay: Insecticidal activity against fourth-instar larval stage of Helicoverpa armigera field strain Home isolated from cotton plant assessed as mortality applied topically onto thorax measured after 48 hr
Helicoverpa armigera [32] = assay: Insecticidal activity against fourth-instar larval stage of pyrethroid-resistance Helicoverpa armigera laboratory strain GS-RR08 assessed as mortality applied topically onto thorax measured after 48 hr
Helicoverpa armigera [33] = assay: Insecticidal activity against fourth-instar larval stage of pyrethroid-resistance Helicoverpa armigera laboratory strain GS-RR06 assessed as mortality applied topically onto thorax measured after 48 hr
Helicoverpa armigera [34] = assay: Insecticidal activity against fourth-instar larval stage of pyrethroid-susceptible Helicoverpa armigera laboratory strain BK-77 assessed as mortality applied topically onto thorax measured after 48 hr
Helicoverpa armigera [35] = assay: Resistance factor, ratio of LD50 for fourth-instar larval stage of Helicoverpa armigera field strain Tchollire to LD50 for fourth-instar larval stage of pyrethroid-susceptible Helicoverpa armigera laboratory strain BK-77
Helicoverpa armigera [36] = assay: Resistance factor, ratio of LD50 for fourth-instar larval stage of Helicoverpa armigera field strain Pitoa isolated from maize plant to LD50 for fourth-instar larval stage of pyrethroid-susceptible Helicoverpa armigera laboratory strain BK-77
Helicoverpa armigera [37] = assay: Resistance factor, ratio of LD50 for fourth-instar larval stage of Helicoverpa armigera field strain Sorga to LD50 for fourth-instar larval stage of pyrethroid-susceptible Helicoverpa armigera laboratory strain BK-77
Helicoverpa armigera [38] = assay: Resistance factor, ratio of LD50 for fourth-instar larval stage of Helicoverpa armigera field strain Home to LD50 for fourth-instar larval stage of pyrethroid-susceptible Helicoverpa armigera laboratory strain BK-77
Helicoverpa armigera [39] = assay: Resistance factor, ratio of LD50 for fourth-instar larval stage of pyrethroid-resistance Helicoverpa armigera laboratory strain GS-RR08 to LD50 for fourth-instar larval stage of pyrethroid-susceptible Helicoverpa armigera laboratory strain BK-77
Helicoverpa armigera [40] = assay: Resistance factor, ratio of LD50 for fourth-instar larval stage of pyrethroid-resistance Helicoverpa armigera laboratory strain GS-RR06 to LD50 for fourth-instar larval stage of pyrethroid-susceptible Helicoverpa armigera laboratory strain BK-77
Helicoverpa armigera [41] = assay: Insecticidal activity against fourth-instar larval stage of Helicoverpa armigera field strain Gaschiga isolated from hyptis plant assessed as mortality applied topically onto thorax measured after 48 hr
Helicoverpa armigera [42] = assay: Insecticidal activity against fourth-instar larval stage of Helicoverpa armigera field strain Djalingo isolated from cotton plant assessed as mortality applied topically onto thorax measured after 48 hr
Helicoverpa armigera [43] = assay: Insecticidal activity against fourth-instar larval stage of Helicoverpa armigera field strain Ngong isolated from cotton plant assessed as mortality applied topically onto thorax measured after 48 hr
Helicoverpa armigera [44] = assay: Resistance factor, ratio of LD50 for fourth-instar larval stage of Helicoverpa armigera field strain Gaschiga isolated from tomato plant to LD50 for fourth-instar larval stage of pyrethroid-susceptible Helicoverpa armigera laboratory strain BK-77
Helicoverpa armigera [45] = assay: Insecticidal activity against fourth-instar larval stage of Helicoverpa armigera field strain Pitoa isolated from tomato plant assessed as mortality applied topically onto thorax measured after 48 hr
Helicoverpa armigera [46] = assay: Resistance factor, ratio of LD50 for fourth-instar larval stage of Helicoverpa armigera field strain Pitoa isolated from tomato plant to LD50 for fourth-instar larval stage of pyrethroid-susceptible Helicoverpa armigera laboratory strain BK-77
Helicoverpa armigera [47] = assay: Insecticidal activity against fourth-instar larval stage of Helicoverpa armigera field strain Gaschiga isolated from tomato plant assessed as mortality applied topically onto thorax measured after 48 hr

## CC1(C)C(C=C(Cl)Cl)C1C(=O)OC(C#N)c1cccc(Oc2ccccc2)c1 (stereo not drawn) [ALPHA-CYPERMETHRIN]
Helicoverpa armigera [1]
  Ratio: 3.7
Helicoverpa armigera [2]
  Ratio: 25
Helicoverpa armigera [3]
  Ratio: 37.5
Helicoverpa armigera [4]
  Ratio: 3.6
Helicoverpa armigera [5]
  Ratio: 1.3
Helicoverpa armigera [6]
  Ratio: 5
Helicoverpa armigera [7]
  Ratio: 8.3
Helicoverpa armigera [8]
  Ratio: 2.1
Helicoverpa armigera [9]
  Ratio: 1.5
Helicoverpa armigera [10]
  LD50: 226.6 microgAi/g
Helicoverpa armigera [11]
  LD50: 1.8 microgAi/g
Helicoverpa armigera [12]
  LD50: 3 microgAi/g
Helicoverpa armigera [13]
  LD50: 8.8 microgAi/g
Helicoverpa armigera [14]
  LD50: 63 microgAi/g
Helicoverpa armigera [15]
  LD50: 53.2 microgAi/g
Helicoverpa armigera [16]
  LD50: 28.9 microgAi/g
Helicoverpa armigera [17]
  LD50: 21.3 microgAi/g
Helicoverpa armigera [18]
  LD50: 480.3 microgAi/g
Helicoverpa armigera [19]
  Ratio: 96
Helicoverpa armigera [20]
  Ratio: 240
Helicoverpa armigera [21]
  Ratio: 194
Helicoverpa armigera [22]
  Ratio: 67
Helicoverpa armigera [23]
  Ratio: 152
Helicoverpa armigera [24]
  Ratio: 174
Helicoverpa armigera [25]
  LD50: 31.6 microgAi/g
Helicoverpa armigera [26]
  LD50: 71.5 microgAi/g
Helicoverpa armigera [27]
  LD50: 81.6 microgAi/g
Helicoverpa armigera [28]
  LD50: 239.9 microgAi/g
Helicoverpa armigera [29]
  LD50: 57.7 microgAi/g
Helicoverpa armigera [30]
  LD50: 48 microgAi/g
Helicoverpa armigera [31]
  LD50: 43.9 microgAi/g
Helicoverpa armigera [32]
  LD50: 832.5 microgAi/g
Helicoverpa armigera [33]
  LD50: 718.4 microgAi/g
Helicoverpa armigera [34]
  LD50: 0.5 microgAi/g
Helicoverpa armigera [35]
  Ratio: 102
Helicoverpa armigera [36]
  Ratio: 510
Helicoverpa armigera [37]
  Ratio: 123
Helicoverpa armigera [38]
  Ratio: 93
Helicoverpa armigera [39]
  Ratio: 1771
Helicoverpa armigera [40]
  Ratio: 1529
Helicoverpa armigera [41]
  LD50: 45 microgAi/g
Helicoverpa armigera [42]
  LD50: 91.5 microgAi/g
Helicoverpa armigera [43]
  LD50: 112.6 microgAi/g

## Clc1ccc(C(c2ccc(Cl)cc2)C(Cl)(Cl)Cl)cc1 [CHLOROPHENOTHANE]
Helicoverpa armigera [44]
  Ratio: 1.4
Helicoverpa armigera [20]
  Ratio: 1.4
Helicoverpa armigera [45]
  LD50: 34.8 microgAi/g
Helicoverpa armigera [28]
  LD50: 48.9 microgAi/g
Helicoverpa armigera [30]
  LD50: 26.7 microgAi/g
Helicoverpa armigera [33]
  LD50: 26.1 microgAi/g
Helicoverpa armigera [34]
  LD50: 24.3 microgAi/g
Helicoverpa armigera [46]
  Ratio: 1.3
Helicoverpa armigera [35]
  Ratio: 1
Helicoverpa armigera [36]
  Ratio: 1.9
Helicoverpa armigera [40]
  Ratio: 1
Helicoverpa armigera [47]
  LD50: 37.4 microgAi/g
Helicoverpa armigera [43]
  LD50: 36.8 microgAi/g

## CC1(C)[C@H](C(=O)O[C@H](C#N)c2cccc(Oc3ccccc3)c2)[C@@H]1C=C(Br)Br [DELTAMETHRIN]
Helicoverpa armigera [44]
  Ratio: 316
Helicoverpa armigera [20]
  Ratio: 134
Helicoverpa armigera [45]
  LD50: 37.8 microgAi/g
Helicoverpa armigera [28]
  LD50: 29.5 microgAi/g
Helicoverpa armigera [30]
  LD50: 3 microgAi/g
Helicoverpa armigera [33]
  LD50: 148.6 microgAi/g
Helicoverpa armigera [34]
  LD50: 0.05 microgAi/g
Helicoverpa armigera [46]
  Ratio: 756
Helicoverpa armigera [35]
  Ratio: 60
Helicoverpa armigera [36]
  Ratio: 590
Helicoverpa armigera [40]
  Ratio: 2972
Helicoverpa armigera [47]
  LD50: 15.8 microgAi/g
Helicoverpa armigera [43]
  LD50: 6.7 microgAi/g
